In US7846959B2, “Raf modulators and methods of use” (Exelixis, Inc., priority 2004, dated 2010):
pIC50: −log10 of the molar value. Where two headings read alike, the source gives them in different places.

Legend:
c-Raf = c-Raf (Homo sapiens, UniProt P04049); assay: Luciferase-coupled chemiluminescence kinase assay (ATP consumption), c-Raf; format: biochemical
Outline: (§1)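 Raf enzyme ([…]) pre-incubated with compound 30 minutes at room temperature in 20 mM Tris pH 7.5, 10 mM MgCl2, 0.03% TX-100, 1 mM DTT, then reacted with ATP for 3 hrs at ambient temperature. Remaining ATP quantified by luciferase-luciferin chemiluminescence, consumption held at 25-60%; IC50 reported.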

B-Raf = B-Raf (Homo sapiens, UniProt P15056); assay: Luciferase-coupled chemiluminescence kinase assay (ATP consumption), B-Raf; format: biochemical
Outline: as §1

[1] = read-out: cRaf-1 (inhibition indicated as IC50)
[2] = read-out: bRaf (inhibition indicated as IC50)

Chain of c-Raf (P04049 whole entry): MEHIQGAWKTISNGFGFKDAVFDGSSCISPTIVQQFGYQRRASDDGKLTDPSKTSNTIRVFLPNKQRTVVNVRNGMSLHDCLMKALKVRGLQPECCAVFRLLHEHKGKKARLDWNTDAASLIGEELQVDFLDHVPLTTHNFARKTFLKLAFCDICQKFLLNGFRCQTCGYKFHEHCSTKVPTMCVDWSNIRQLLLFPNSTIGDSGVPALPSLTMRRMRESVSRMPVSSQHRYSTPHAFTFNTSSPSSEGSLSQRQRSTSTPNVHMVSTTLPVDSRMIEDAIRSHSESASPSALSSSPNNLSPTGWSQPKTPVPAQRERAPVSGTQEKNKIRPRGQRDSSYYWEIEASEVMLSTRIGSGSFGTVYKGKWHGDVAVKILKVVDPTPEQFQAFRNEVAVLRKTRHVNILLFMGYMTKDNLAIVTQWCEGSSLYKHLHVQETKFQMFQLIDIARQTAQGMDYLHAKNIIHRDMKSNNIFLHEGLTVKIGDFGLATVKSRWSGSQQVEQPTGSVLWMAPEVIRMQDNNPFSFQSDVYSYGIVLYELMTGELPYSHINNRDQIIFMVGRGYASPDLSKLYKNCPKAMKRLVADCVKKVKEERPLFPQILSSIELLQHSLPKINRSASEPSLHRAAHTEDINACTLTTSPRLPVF
Chain of B-Raf (P15056 whole entry): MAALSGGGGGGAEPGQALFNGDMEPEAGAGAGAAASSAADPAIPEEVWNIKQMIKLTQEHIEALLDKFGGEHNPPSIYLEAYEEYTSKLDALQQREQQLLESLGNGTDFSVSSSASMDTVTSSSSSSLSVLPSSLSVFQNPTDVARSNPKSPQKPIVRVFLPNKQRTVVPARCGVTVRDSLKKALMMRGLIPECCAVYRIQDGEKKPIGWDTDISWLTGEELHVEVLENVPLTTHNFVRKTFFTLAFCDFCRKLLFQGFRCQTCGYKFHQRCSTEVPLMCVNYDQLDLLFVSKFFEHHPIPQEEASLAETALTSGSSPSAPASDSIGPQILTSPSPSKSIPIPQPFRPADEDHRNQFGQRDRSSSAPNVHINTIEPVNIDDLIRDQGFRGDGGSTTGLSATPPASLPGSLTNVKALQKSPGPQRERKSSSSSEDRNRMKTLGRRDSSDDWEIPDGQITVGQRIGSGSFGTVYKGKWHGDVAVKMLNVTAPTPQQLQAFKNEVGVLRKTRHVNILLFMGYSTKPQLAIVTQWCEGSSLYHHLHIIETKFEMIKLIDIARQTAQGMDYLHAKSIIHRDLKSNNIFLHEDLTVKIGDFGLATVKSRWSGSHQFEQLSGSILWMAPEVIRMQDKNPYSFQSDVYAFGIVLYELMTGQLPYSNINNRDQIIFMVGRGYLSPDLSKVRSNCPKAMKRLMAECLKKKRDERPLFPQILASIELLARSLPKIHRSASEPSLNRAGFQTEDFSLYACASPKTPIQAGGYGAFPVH

Q: How did the pIC50 (c-Raf; read-out: cRaf-1 IC50) turn out when COC(=O)Nc1nc2ccc(C3(O)c4ccccc4C(=O)N3Cc3cccc(F)c3)cc2[nH]1 (stereo not shown) [Entry 114, methyl (6-{2-[(3-fluorophenyl)methyl]-1-hydroxy-3-oxo-2,3-dihydro-1H-isoindol-1-yl}-1H-benzimidazol-2-yl)carbamate] was run?
A: > 7.00

Q: What about the pIC50 (B-Raf; read-out: bRaf IC50) of the same molecule?
A: > 7.00

Q: COC(=O)Nc1nc2cc(C3(O)c4ccccc4C(=O)N3c3cc(C)cc(C)c3)ccc2[nH]1 (stereo not shown) [Entry 141, methyl {5-[2-(3,5-dimethylphenyl)-1-hydroxy-3-oxo-2,3-dihydro-1H-isoindol-1-yl]-1H-benzimidazol-2-yl}carbamate] was tested. Which pIC50 (c-Raf; read-out: cRaf-1 IC50) did it give?
A: > 7.00

Q: What about the pIC50 (B-Raf; read-out: bRaf IC50) of the same molecule?
A: > 7.00

Q: Which results are given for COC(=O)Nc1nc2cc(C3(O)c4ccccc4C(=O)N3C(C)c3ccc(Cl)s3)ccc2[nH]1 (stereo not shown) [Entry 202, methyl (5-{2-[1-(5-chloro-2-thienyl)ethyl]-1-hydroxy-3-oxo-2,3-dihydro-1H-isoindol-1-yl}-1H-benzimidazol-2-yl)carbamate]?
A: pIC50 (c-Raf; read-out: cRaf-1 IC50): > 7.00; pIC50 (B-Raf; read-out: bRaf IC50): > 7.00

Q: How did the pIC50 (c-Raf; read-out: cRaf-1 IC50) turn out when O=C(CC(O)(C(F)(F)F)C(F)(F)F)Nc1nc2cc(C3(O)c4ccccc4C(=O)N3Cc3ccccc3)ccc2[nH]1 (stereo not shown) [Entry 218, 4,4,4-trifluoro-3-hydroxy-N-{5-[1-hydroxy-3-oxo-2-(phenylmethyl)-2,3-dihydro-1H-isoindol-1-yl]-1H-benzimidazol-2-yl}-3-(trifluoromethyl)butanamide] was run?
A: 5.00 to 6.00

Q: And the pIC50 (B-Raf; read-out: bRaf IC50)?
A: 5.00 to 6.00

Q: Which results are given for CC(C)OC(=O)Nc1nc2cc(C3(O)c4ccccc4C(=O)N3Cc3ccccc3)ccc2[nH]1 (stereo not shown) [Entry 110, 1-methylethyl {5-[1-hydroxy-3-oxo-2-(phenylmethyl)-2,3-dihydro-1H-isoindol-1-yl]-1H-benzimidazol-2-yl}carbamate]?
A: pIC50 (c-Raf; read-out: cRaf-1 IC50): > 7.00; pIC50 (B-Raf; read-out: bRaf IC50): > 7.00

Q: How did the pIC50 (c-Raf; read-out: cRaf-1 IC50) turn out when COC(=O)Nc1nc2cc(C3(O)c4ccccc4C(=O)N3Cc3ccc(OC)cc3)ccc2[nH]1 (stereo not shown) [Entry 118, methyl [5-(1-hydroxy-2-{[4-(methyloxy)phenyl]methyl}-3-oxo-2,3-dihydro-1H-isoindol-1-yl)-1H-benzimidazol-2-yl]carbamate] was run?
A: ≤ 5.00

Q: What about the pIC50 (B-Raf; read-out: bRaf IC50) of the same molecule?
A: ≤ 5.00

Q: COC(=O)Nc1nc2cc(C3(O)c4ccccc4C(=O)N3Cc3cccc(I)c3)ccc2[nH]1 (stereo not shown) [Entry 121, methyl (5-{1-hydroxy-2-[(3-iodophenyl)methyl]-3-oxo-2,3-dihydro-1H-isoindol-1-yl}-1H-benzimidazol-2-yl)carbamate] was tested. Which pIC50 (c-Raf; read-out: cRaf-1 IC50) did it give?
A: 6.00 to 7.00

Q: What about the pIC50 (B-Raf; read-out: bRaf IC50) of the same molecule?
A: 6.00 to 7.00

Q: How did the pIC50 (c-Raf; [1]) turn out when C#Cc1cc(Cl)cc(N2C(=O)c3ccccc3C2(O)c2ccc3[nH]c(NC(=O)OC)nc3c2)c1C (stereo not shown) [Entry 351, methyl {5-[2-(5-chloro-3-ethynyl-2-methylphenyl)-1-hydroxy-3-oxo-2,3-dihydro-1H-isoindol-1-yl]-1H-benzimidazol-2-yl}carbamate] was run?
A: 6.00 to 7.00

Q: And the pIC50 (B-Raf; [2])?
A: > 7.00

Q: Which results are given for COC(=O)Nc1nc2ccc(C3(O)c4c(F)ccc(F)c4C(=O)N3c3cccc(Br)c3)cc2[nH]1 (stereo not shown) [Entry 296, methyl {6-[2-(3-bromophenyl)-4,7-difluoro-1-hydroxy-3-oxo-2,3-dihydro-1H-isoindol-1-yl]-1H-benzimidazol-2-yl}carbamate]?
A: pIC50 (c-Raf; [1]): > 7.00; pIC50 (B-Raf; [2]): > 7.00

Q: Which results are given for O=C(Nc1nc2ccc(C3(O)c4ccccc4C(=O)N3c3cccc(Cl)c3F)cc2[nH]1)OCCN1C(=O)CCC1=O (stereo not shown) [Entry 324, 2-(2,5-dioxopyrrolidin-1-yl)ethyl {6-[2-(3-chloro-2-fluorophenyl)-1-hydroxy-3-oxo-2,3-dihydro-1H-isoindol-1-yl]-1H-benzimidazol-2-yl}carbamate]?
A: pIC50 (c-Raf; [1]): > 7.00; pIC50 (B-Raf; [2]): > 7.00

Q: With O=C1c2ccccc2C(O)(c2ccc3[nH]c(Nc4cnccn4)nc3c2)N1c1cccc(Cl)c1F (stereo not shown) [Entry 361, 2-(3-chloro-2-fluorophenyl)-3-hydroxy-3-[2-(pyrazin-2-ylamino)-1H-benzimidazol-5-yl]-2,3-dihydro-1H-isoindol-1-one] as the molecule, how does the pIC50 (c-Raf; [1]) read?
A: > 7.00

Q: What about the pIC50 (B-Raf; [2]) of the same molecule?
A: > 7.00

Q: What does the source list for COC(=O)Nc1nc2ccc(C(=O)c3ccccc3C(=O)NCc3cccs3)cc2[nH]1 [Entry 392, methyl {6-[(2-{[(2-thienylmethyl)amino]carbonyl}phenyl)carbonyl]-1H-benzimidazol-2-yl}carbamate]?
A: pIC50 (c-Raf; [1]): > 7.00; pIC50 (B-Raf; [2]): > 7.00

Q: COC(=O)Nc1nc2cc(C3(O)c4ccccc4C(=O)N3c3cccc(F)c3F)ccc2[nH]1 (stereo not shown) [Entry 184, methyl {5-[2-(2,3-difluorophenyl)-1-hydroxy-3-oxo-2,3-dihydro-1H-isoindol-1-yl]-1H-benzimidazol-2-yl}carbamate] was tested. Which pIC50 (c-Raf; read-out: cRaf-1 IC50) did it give?
A: > 7.00

Q: And the pIC50 (B-Raf; read-out: bRaf IC50)?
A: > 7.00

Q: C#Cc1cc(N2C(=O)c3ccccc3C2(O)c2ccc3[nH]c(NC(=O)OC)nc3c2)ccc1F (stereo not shown) [Entry 226, methyl {5-[2-(3-ethynyl-4-fluorophenyl)-1-hydroxy-3-oxo-2,3-dihydro-1H-isoindol-1-yl]-1H-benzimidazol-2-yl}carbamate] was tested. Which pIC50 (c-Raf; read-out: cRaf-1 IC50) did it give?
A: > 7.00

Q: And the pIC50 (B-Raf; read-out: bRaf IC50)?
A: > 7.00

Q: With O=C(Nc1nc2cc(C3(O)c4ccccc4C(=O)N3c3cccc(Cl)c3F)ccc2[nH]1)OC1CC(F)(F)C1(F)F (stereo not shown) [Entry 325, 2,2,3,3-tetrafluorocyclobutyl {5-[2-(3-chloro-2-fluorophenyl)-1-hydroxy-3-oxo-2,3-dihydro-1H-isoindol-1-yl]-1H-benzimidazol-2-yl}carbamate] as the molecule, how does the pIC50 (c-Raf; [1]) read?
A: > 7.00

Q: And the pIC50 (B-Raf; [2])?
A: > 7.00

Q: With COC(=O)Nc1nc2cc(C3(O)c4ccccc4C(=O)N3c3cc(C)ccc3F)ccc2[nH]1 (stereo not shown) [Entry 380, methyl {5-[2-(2-fluoro-5-methylphenyl)-1-hydroxy-3-oxo-2,3-dihydro-1H-isoindol-1-yl]-1H-benzimidazol-2-yl}carbamate] as the molecule, how does the pIC50 (c-Raf; [1]) read?
A: > 7.00

Q: What about the pIC50 (B-Raf; [2]) of the same molecule?
A: > 7.00

Q: Which results are given for C#Cc1ccc(C)c(N2C(=O)c3ccccc3C2(O)c2ccc3[nH]c(NC(=O)OC)nc3c2)c1 (stereo not shown) [Entry 360, methyl {5-[2-(5-ethynyl-2-methylphenyl)-1-hydroxy-3-oxo-2,3-dihydro-1H-isoindol-1-yl]-1H-benzimidazol-2-yl}carbamate]?
A: pIC50 (c-Raf; [1]): > 7.00; pIC50 (B-Raf; [2]): > 7.00

Q: Which results are given for COC(=O)Nc1nc2cc(C3(O)c4ccccc4C(=O)N3Cc3nccs3)ccc2[nH]1 (stereo not shown) [Entry 163, methyl {5-[1-hydroxy-3-oxo-2-(1,3-thiazol-2-ylmethyl)-2,3-dihydro-1H-isoindol-1-yl]-1H-benzimidazol-2-yl}carbamate]?
A: pIC50 (c-Raf; read-out: cRaf-1 IC50): 6.00 to 7.00; pIC50 (B-Raf; read-out: bRaf IC50): 6.00 to 7.00

Q: Which results are given for COC(=O)Nc1nc2cc(C3(O)c4ccccc4C(=O)N3c3ccc(F)c(C)c3)ccc2[nH]1 (stereo not shown) [Entry 227, methyl {5-[2-(4-fluoro-3-methylphenyl)-1-hydroxy-3-oxo-2,3-dihydro-1H-isoindol-1-yl]-1H-benzimidazol-2-yl}carbamate]?
A: pIC50 (c-Raf; read-out: cRaf-1 IC50): > 7.00; pIC50 (B-Raf; read-out: bRaf IC50): > 7.00

Q: What does the source list for COC(=O)Nc1nc2cc(C3(O)c4ccccc4C(=O)N3c3cccc(C(N)=O)c3)ccc2[nH]1 (stereo not shown) [Entry 217, methyl (5-{2-[3-(aminocarbonyl)phenyl]-1-hydroxy-3-oxo-2,3-dihydro-1H-isoindol-1-yl}-1H-benzimidazol-2-yl)carbamate]?
A: pIC50 (c-Raf; read-out: cRaf-1 IC50): 6.00 to 7.00; pIC50 (B-Raf; read-out: bRaf IC50): > 7.00

Q: How did the pIC50 (c-Raf; read-out: cRaf-1 IC50) turn out when COC(=O)Nc1nc2cc(C3(O)c4ccccc4C(=O)N3C(C)c3cccc(Cl)c3)ccc2[nH]1 (stereo not shown) [Entry 174, methyl (5-{2-[1-(3-chlorophenyl)ethyl]-1-hydroxy-3-oxo-2,3-dihydro-1H-isoindol-1-yl}-1H-benzimidazol-2-yl)carbamate] was run?
A: 6.00 to 7.00

Q: What about the pIC50 (B-Raf; read-out: bRaf IC50) of the same molecule?
A: > 7.00

Q: How did the pIC50 (c-Raf; read-out: cRaf-1 IC50) turn out when COC(=O)Nc1nc2cc(C3(O)c4ccccc4C(=O)N3CC3CCC3)ccc2[nH]1 (stereo not shown) [Entry 207, methyl {5-[2-(cyclobutylmethyl)-1-hydroxy-3-oxo-2,3-dihydro-1H-isoindol-1-yl]-1H-benzimidazol-2-yl}carbamate] was run?
A: > 7.00

Q: What about the pIC50 (B-Raf; read-out: bRaf IC50) of the same molecule?
A: > 7.00

Q: Which results are given for COC(=O)Nc1nc2cc(C3(O)c4ccccc4C(=O)N3c3cccc(C(C)=O)c3)ccc2[nH]1 (stereo not shown) [Entry 237, methyl {5-[2-(3-acetylphenyl)-1-hydroxy-3-oxo-2,3-dihydro-1H-isoindol-1-yl]-1H-benzimidazol-2-yl}carbamate]?
A: pIC50 (c-Raf; read-out: cRaf-1 IC50): > 7.00; pIC50 (B-Raf; read-out: bRaf IC50): > 7.00

Q: How did the pIC50 (c-Raf; [1]) turn out when CCOC(=O)Nc1nc2cc(C(=O)c3ccccc3C(=O)OCc3ccccc3)ccc2o1 [Entry 350, phenylmethyl 2-[(2-{[(ethyloxy)carbonyl]amino}-1,3-benzoxazol-5-yl)carbonyl]benzoate] was run?
A: 5.00 to 6.00

Q: And the pIC50 (B-Raf; [2])?
A: 5.00 to 6.00

Q: How did the pIC50 (c-Raf; [1]) turn out when O=C1c2ccccc2C(O)(c2ccc3[nH]c(Nc4ccc(Cl)nn4)nc3c2)N1c1cccc(Cl)c1F (stereo not shown) [Entry 378, 2-(3-chloro-2-fluorophenyl)-3-{2-[(6-chloropyridazin-3-yl)amino]-1H-benzimidazol-5-yl}-3-hydroxy-2,3-dihydro-1H-isoindol-1-one] was run?
A: 6.00 to 7.00

Q: What about the pIC50 (B-Raf; [2]) of the same molecule?
A: 6.00 to 7.00

Q: With COC(=O)Nc1nc2cc(C3(O)c4ccccc4C(=O)N3c3ccccc3Cl)ccc2[nH]1 (stereo not shown) [Entry 143, methyl {5-[2-(2-chlorophenyl)-1-hydroxy-3-oxo-2,3-dihydro-1H-isoindol-1-yl]-1H-benzimidazol-2-yl}carbamate] as the molecule, how does the pIC50 (c-Raf; read-out: cRaf-1 IC50) read?
A: > 7.00

Q: And the pIC50 (B-Raf; read-out: bRaf IC50)?
A: > 7.00

Q: With O=C1c2ccccc2C(O)(c2ccc3cc[nH]c3c2)N1Cc1ccccc1 (stereo not shown) [Entry 65, 3-hydroxy-3-(1H-indol-6-yl)-2-(phenylmethyl)-2,3-dihydro-1H-isoindol-1-one] as the molecule, how does the pIC50 (c-Raf; read-out: cRaf-1 IC50) read?
A: ≤ 5.00

Q: And the pIC50 (B-Raf; read-out: bRaf IC50)?
A: ≤ 5.00

Q: How did the pIC50 (c-Raf; [1]) turn out when COC(=O)Nc1nc2cc(C3(O)c4ccccc4C(=O)N3CC3CCNC3)ccc2[nH]1 (stereo not shown) [Entry 301, methyl {5-[1-hydroxy-3-oxo-2-(pyrrolidin-3-ylmethyl)-2,3-dihydro-1H-isoindol-1-yl]-1H-benzimidazol-2-yl}carbamate] was run?
A: 5.00 to 6.00

Q: And the pIC50 (B-Raf; [2])?
A: 5.00 to 6.00

Q: O=C1COc2ccc(C3(O)c4ccccc4C(=O)N3c3ccccc3Cl)cc2N1 (stereo not shown) [Entry 72, 6-[2-(2-chlorophenyl)-1-hydroxy-3-oxo-2,3-dihydro-1H-isoindol-1-yl]-2H-1,4-benzoxazin-3(4H)-one] was tested. Which pIC50 (c-Raf; read-out: cRaf-1 IC50) did it give?
A: 5.00 to 6.00

Q: And the pIC50 (B-Raf; read-out: bRaf IC50)?
A: 5.00 to 6.00
